# Reference: patent US20060212961A1, “Rice transposon gene” (priority 2003, published 2006)
# Legend:
# pyl-stb seeds = assay: Azacytidine treatment of pyl-stb seeds, appearance of mutable (pyl-v) individuals; type: in vivo, rice; settings: for Germination rate (%) / Mutable individual (%) / Individual with mutable or abnormal phenotype / Mutable individual / Normal individual: seeds macerated 24 hrs at 30° C.; for Individual with mutable or abnormal phenotype / Mutable individual / Normal individual: number of individuals
# Method: pyl-stb seeds were macerated in 0.15, 0.3 or 0.45 mM azacytidine aqueous solution for 24 hrs at 30° C., washed them, left for germination and examined the expression of pyl-v.
# indica rice (93-11) = assay: Azacytidine treatment of indica rice (93-11), release of nDart; type: in vivo; settings: 93-11 treated with azacytidine; no release under usual growth conditions
# Method: Furthermore, indica rice (93-11) was treated with azacytidine and confirmed release of nDart.
smiles,measurement,setting,value
"Nc1ncn([C@@H]2O[C@H](CO)[C@@H](O)[C@H]2O)c(=O)n1 [azaC, 5-azacytidine]",Frequency of the transposition of nDart,"pyl-stb seeds; 0.15, 0.3 or 0.45 mM azacytidine aqueous solution, 24 hrs at 30° C.",increased as the concentration of azacytidine increased
same,Germination rate (%),pyl-stb seeds; azaC 0.15 mM,99%
same,Mutable individual (%),pyl-stb seeds; azaC 0.15 mM,60.6%
same,Individual with mutable or abnormal phenotype,pyl-stb seeds; azaC 0.15 mM,17
same,Mutable individual,pyl-stb seeds; azaC 0.15 mM,43
same,Normal individual,pyl-stb seeds; azaC 0.15 mM,39
same,Germination rate (%),pyl-stb seeds; azaC 0.3 mM,92%
same,Mutable individual (%),pyl-stb seeds; azaC 0.3 mM,69.6%
same,Individual with mutable or abnormal phenotype,pyl-stb seeds; azaC 0.3 mM,27
same,Mutable individual,pyl-stb seeds; azaC 0.3 mM,37
same,Normal individual,pyl-stb seeds; azaC 0.3 mM,28
same,Germination rate (%),pyl-stb seeds; azaC 0.45 mM,95%
same,Mutable individual (%),pyl-stb seeds; azaC 0.45 mM,73.7%
same,Individual with mutable or abnormal phenotype,pyl-stb seeds; azaC 0.45 mM,36
same,Mutable individual,pyl-stb seeds; azaC 0.45 mM,34
same,Normal individual,pyl-stb seeds; azaC 0.45 mM,25
same,Change of pyl-stb to a pyl-v mutant,pyl-stb seeds; azacytidine treatment of pyl-stb seeds,able to be changed to a pyl-v mutant
same,Release of nDart,indica rice (93-11),release was confirmed
